Data published in paper PMC8546149, “Antibiotic-chemoattractants enhance neutrophil clearance of Staphylococcus aureus” (Nature Communications, 2021).
Non-standard residues stand in square brackets, D forms with d. Residues, ends and D or L forms follow the SMILES beside them. *: point of attachment. Cha = N[C@@H](CC1CCCCC1)C(=O)O; For = O=C*

Legend:
human FPR1 [1] = biological target: T1, human FPR1 (Homo sapiens, UniProt P21462); assay: ERK1/2 phosphorylation, CHO cells expressing FPR1; format: cell-based; conditions: 5 min, mean ± SEM; for Emax: normalized to 10% FBS; for EC50: read-out: ERK1/2 phosphorylation FPR1 pEC50 (converted)
T1 construct: expressed in transfected cells
T1 sequence (P21462 1-350): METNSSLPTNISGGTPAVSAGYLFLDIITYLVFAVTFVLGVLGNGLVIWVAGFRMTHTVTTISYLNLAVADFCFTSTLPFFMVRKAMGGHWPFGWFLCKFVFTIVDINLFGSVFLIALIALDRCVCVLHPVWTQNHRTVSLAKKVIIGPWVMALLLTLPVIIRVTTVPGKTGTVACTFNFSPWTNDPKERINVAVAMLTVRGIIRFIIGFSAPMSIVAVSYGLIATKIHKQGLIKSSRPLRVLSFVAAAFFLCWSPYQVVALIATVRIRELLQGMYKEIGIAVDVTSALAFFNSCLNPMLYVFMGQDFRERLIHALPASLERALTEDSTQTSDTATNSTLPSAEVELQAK
Description: (§1) FlpIn Chinese hamster ovary (CHO) cells stably expressing either the human FPR1 or FPR2. Both of the cell lines were cultured in Dulbecco’s modified eagle medium (DMEM), which contained 10% foetal bovine serum (FBS, JRH Biosciences) and 500 µg/mL of the antibiotic hygromycin-B (Invitrogen Inc). Cells were grown at 37 °C in a humidified incubator containing 5% CO2 as described previously. Cells were seeded into 96-well tissue culture plates (4 × 10^4 cells/well) and after 6–8 h, cells were washed with PBS twice (50 µL/well in each washing step) and then starved by incubating in 90 µL/well of serum-free DMEM overnight at 37 °C in 5% CO2 before assaying for ERK1/2 phosphorylation (pERK1/2) and intracellular Ca^2+ mobilization.
(§2) A time course was used to assess peak pERK1/2 phosphorylation for all the compounds. The positive control of 10% FBS, and serum-free DMEM as vehicle control. […] All the compounds were tested with time points taken at 0, 5, 7, 10, 20, 30.
(§3) For both the time course and concentration-response curves, the stimulation was terminated by the rapid removal of serum-free DMEM with agonists and adding 100 μL/well of SureFire lysis buffer. The detection step was performed according to the manufacturer’s instructions (AlphaScreen detection kit, PerkinElmer Life and Analytical Science)[49]. Data were normalized to the vehicle (serum-free DMEM) and the response elicited by 10% FBS, with nonlinear regression performed using GraphPad Prism 9.0.
(§4) Non-linear regression was performed using GraphPrism 9.0. […] Significance was determined using Student’s unpaired t test, with two-tailed p values of <0.05 considered statistically significant.

human FPR2 [2] = biological target: T2, human FPR2 (Homo sapiens, UniProt P25090); assay: ERK1/2 phosphorylation, CHO cells expressing FPR2; format: cell-based; conditions: 5 min, mean ± SEM; for Emax: normalized to 10% FBS; for EC50: read-out: ERK1/2 phosphorylation FPR2 pEC50 (converted)
T2 construct: expressed in transfected cells
T2 sequence (P25090 1-351): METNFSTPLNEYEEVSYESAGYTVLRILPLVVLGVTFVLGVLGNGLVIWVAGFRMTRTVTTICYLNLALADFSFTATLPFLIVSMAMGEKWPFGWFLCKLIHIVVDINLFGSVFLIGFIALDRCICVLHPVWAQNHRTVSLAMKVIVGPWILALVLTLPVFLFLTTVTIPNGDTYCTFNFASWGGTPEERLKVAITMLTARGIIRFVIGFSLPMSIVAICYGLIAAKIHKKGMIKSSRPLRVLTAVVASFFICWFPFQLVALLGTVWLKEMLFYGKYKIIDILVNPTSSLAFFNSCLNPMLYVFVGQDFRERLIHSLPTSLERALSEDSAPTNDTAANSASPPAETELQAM
Description: as §1, §2, §3, §4

human FPR1 [3] = biological target: T1, human FPR1; assay: Calcium mobilization, CHO cells expressing FPR1; format: cell-based; conditions: mean ± SEM; for Emax: normalized to ATP 100 µM, read-out: [Ca2+]i mobilization FPR1 Emax; for EC50: read-out: [Ca2+]i mobilization FPR1 pEC50 (converted)
Description: as §1
(§5) For the calcium mobilization assay, the cells were plated and starved in the same manner as the pERK1/2 assay, before washing the cells once in HEPES buffered saline (HBS) solution [150 mM NaCl, 1.3 mM CaCl2, 5 mM KCl, 1 mM MgSO4.7H2O, 1.5 mM NaHCO3, 10 mM HEPES, and 10 mM D-glucose; pH 7.4]. Then the cells were incubated at 37 °C under 5% CO2 condition with HBS containing 0.5% (w/v) bovine serum albumin (BSA), 4 mM probenecid and 1 µM Fluo-8-AM (Abcam) for 1 h. FlexStation three plate reader (Molecular Devices) were used to determine Ca^2+ mobilization. The peak change in fluorescence signal was normalized to the vehicle (HBS solution) and the cellular response mediated by the positive control, adenosine triphosphate (ATP, 100 µM), and fitted with nonlinear regression curve in GraphPad Prism 9.0.
as §4

human FPR2 [4] = biological target: T2, human FPR2; assay: Calcium mobilization, CHO cells expressing FPR2; format: cell-based; conditions: mean ± SEM; for Emax: normalized to ATP 100 µM, read-out: [Ca2+]i mobilization FPR2 Emax; for EC50: read-out: [Ca2+]i mobilization FPR2 pEC50 (converted)
Description: as §1, §5, §4

[5] = tested on: pHrodo Red S. aureus BioParticles phagocytosed by human neutrophils; assay: Infection-on-a-chip phagocytosis (pHrodo fluorescence); format: cell-based; conditions: at 2 h
Description: For neutrophils used in microfluidic devices, de-identified fresh blood samples (10 mL) were purchased from Research Blood Components where blood samples were obtained from healthy volunteers aged ≥18 years who were not receiving immunosuppressant agents. Additionally, venous blood samples from healthy volunteers were collected by phlebotomy, after receipt of written informed consent, and under approval by the MGH Institutional Review Board (protocol 2008-P-002123). Neutrophils were isolated from whole blood using EasySep direct human neutrophil isolation kit (StemCell Technologies) as per the manufacturer’s instructions.
Use of this microfluidic device for monitoring migration of neutrophils and control of the S. aureus growth in cell culture medium has been outlined in detail previously. Briefly, microfluidic devices were primed with S. aureus (SH1000-GFP, 1 × 10^6/mL) in culture media (Iscove’s Modified Dulbecco’s Medium + 10% Fetal Bovine Serum) by loading the outer chamber and applying vacuum to draw bacteria into the inner chambers. The outer chamber was then washed by pushing 200 µL of media through the device using a pipette, and loaded with neutrophils (5.5 × 10^6/mL, stained with Hoechst 33342 dye, 10 min at 32 μM). Additionally, neutrophil phagocytosis was monitored by using pHrodo Red S. aureus BioParticles® (Life Technologies) in replace of live S. aureus cells. BioParticles were used at a final concentration of 1 × 10^7/mL, which gave 50–100 BioParticles within the microchamber. The concentration of cells were determined by hemocytometer.
Kinetics of neutrophil migration, S. aureus growth and phagocytosis was determined using imaging with an automated Nikon Eclipse TiE inverted wide-field microscope with stage control and perfect focus system run through the Nikon NIS element v4. The biochamber was maintained temperature at 37 °C and CO2 at 5% for the 8 h of the experiment, where images were captured every 5 min for each field of view (FOV), with at least 4 FOV captured per experimental condition. For each experimental condition at least 12 chambers were tracked for neutrophil migration using the FIJI[64] plugin Trackmate[65]. The percentage of neutrophils recruited into the chamber was determined relative to the total number of neutrophils in each FOV divided by the number of chambers visible. Data were averaged and the results from at least 3 donors plotted. The pHrodo or S. aureus GFP fluorescence within the microchamber was calculated by thresholding the image and measuring the area in FIJI[36]. Data were plotted using GraphPad Prism 8 software (GraphPad Software, San Diego, CA, USA).

[6] = biological target: T3, formyl peptide receptor 1 (FPR1) (human, UniProt P21462 1-350)
T3 sequence (looked up): T1 sequence (P21462 1-350)

[7] = tested on: FPR2 of human neutrophils; assay: FPR competition binding assay with RhB-PB10; conditions: 8 µM peptide, 5 min, after RhB-PB10 15 µM 1 h, Bis-Tris pH 6
Description: A competition binding assay was performed based modification of the previous method. To determine the interaction of the formylated peptides with FPR2 of human neutrophils the fluorescently labelled FPR2 antagonist RhB-PB10 was used. RhB-PB10 was synthesized by solid-phase peptide synthesis on Wang resin. After initial acylation with Fmoc-L-Arg(Pbf)-OH, peptide elongation was performed using a solution of 20% piperidine for Fmoc removal and DIC/ Oxyma for Fmoc-amino acid or Rhodamine B coupling. After completion of the sequence, the peptide was cleaved from the resin and protecting groups were removed via TFA cleavage. Following concentration, the peptide was precipitated using diethyl ether, collected by centrifugation on a spark-resistant centrifuge and purified using RP-HPLC.
RhB-PB10 (15 μM) was preincubated with human neutrophils (5 × 10^6 neutrophils/mL) in Bis-Tris buffer pH 6 for 1 h. […] Any RhB-PB10 that was competed off by the peptides was then removed by washing in Bis-Tris buffer. Rhodamine B fluorescence levels of each sample were determined using microplate reader (Clariostar plate reader, BMG) with ex 550 nm, em 585 nm.

Molecule | Emax (human FPR1 [1]) | Emax (human FPR2 [2]) | Emax (human FPR1 [3]) | Emax (human FPR2 [4]) | area of pHrodo fluorescence per neutrophil recruited into the microchamber ([5]; donor 2) | area of pHrodo fluorescence per neutrophil recruited into the microchamber ([5]; donor column 1) | area of pHrodo fluorescence per neutrophil recruited into the microchamber ([5]; donor column 3) | area of pHrodo fluorescence per neutrophil recruited into the microchamber ([5]; donor column 4) | also measured
CN[C@H](CC(C)C)C(=O)N[C@H]1C(=O)N[C@@H](CC(N)=O)C(=O)N[C@H]2C(=O)N[C@H]3C(=O)N[C@H](C(=O)N[C@H](C(=O)NCCCn4cc(C[C@H](NC(=O)CNC(=O)[C@H](Cc5ccccc5)NC(=O)[C@H](CC(C)C)NC(=O)[C@H](CCSC)NC=O)C(N)=O)nn4)c4cc(O)cc(O)c4-c4cc3ccc4O)[C@H](O)c3ccc(c(Cl)c3)Oc3cc2cc(c3O[C@@H]2O[C@H](CO)[C@@H](O)[C@H](O)[C@H]2O[C@H]2C[C@](C)(N)[C@H](O)[C@H](C)O2)Oc2ccc(cc2Cl)[C@H]1O [C1, Van-C(fMLFG-Tz)] | 77 ± 8% | 99 ± 9% | 34 ± 8% | 45 ± 10% |  |  |  |  | 
CN[C@H](CC(C)C)C(=O)N[C@H]1C(=O)N[C@@H](CC(N)=O)C(=O)N[C@H]2C(=O)N[C@H]3C(=O)N[C@H](C(=O)N[C@H](C(=O)NCCCn4cc(C[C@H](NC(=O)CNC(=O)[C@H](Cc5ccccc5)NC(=O)[C@H](CC5CCCCC5)NC(=O)[C@H](CCSC)NC=O)C(N)=O)nn4)c4cc(O)cc(O)c4-c4cc3ccc4O)[C@H](O)c3ccc(c(Cl)c3)Oc3cc2cc(c3O[C@@H]2O[C@H](CO)[C@@H](O)[C@H](O)[C@H]2O[C@H]2C[C@](C)(N)[C@H](O)[C@H](C)O2)Oc2ccc(cc2Cl)[C@H]1O [C11, Van-C(fM-Cha-FG-Tz)] | 83 ± 3% | 84 ± 4% | 24 ± 3% | 27 ± 3% |  |  |  |  | 
CSCC[C@H](NC=O)C(=O)N[C@@H](CC(C)C)C(=O)N[C@@H](Cc1ccccc1)C(=O)NCC(N)=O [FP1, fMLFG-NH2] (For-MLFG-NH2) | 86 ± 8% | 82 ± 7% | 27 ± 4% | 34 ± 7% |  |  |  |  | EC50 (human FPR1 [1]): 2.51 nM; EC50 (human FPR2 [2]): 2880 nM; EC50 (human FPR1 [3]): 6.76 nM; EC50 (human FPR2 [4]): 1350 nM
CSCC[C@H](NC=O)C(=O)N[C@@H](CC1CCCCC1)C(=O)N[C@@H](Cc1ccccc1)C(=O)NCC(N)=O [FP11, fM-Cha-FG-NH2] (For-M[Cha]FG-NH2) | 90 ± 8% | 81 ± 9% | 27 ± 4% | 43 ± 13% |  |  |  |  | EC50 (human FPR1 [1]): 2.19 nM; EC50 (human FPR2 [2]): 1860 nM; EC50 (human FPR1 [3]): 9.55 nM; EC50 (human FPR2 [4]): 1320 nM
CSCC[C@H](NC=O)C(=O)N[C@@H](CC(C)C)C(=O)N[C@@H](Cc1ccccc1)C(=O)O [fMLF, N-formyl-Met-Leu-Phe, reference compound] |  | 99 ± 27% |  | 18 ± 4% |  |  |  |  | 
Van-C(fML-Tyr-G-Tz) [C19] |  |  |  |  | 3.5 | 9.2 | 7.8 | 2.6 | 
Van-C(fMLF-Leu-Tz) [C18] |  |  |  |  | 4.4 | 7.9 | 2.1 | 1.8 | 
fMChaFG = van (fMChaFG conjugated to the C-terminus of vancomycin) (peptide) |  |  |  |  |  |  |  |  | ERK1/2 phosphorylation at 5 min in CHO cells overexpressing human FPR1, potency of the conjugate against the free peptide (lower potency) [6]: 10 fold; calcium mobilization in CHO cells overexpressing human FPR1, potency of the conjugate against the free peptide (lower potency) [6]: > 90 fold
fMIVIL [FPR2 specific agonist (Auspep)] |  |  |  |  |  |  |  |  | RhB-PB10 binding to neutrophils relative to control (=1) ([7]; replicate 1): 0.81; RhB-PB10 binding to neutrophils relative to control (=1) ([7]; replicate 2): 0.79; RhB-PB10 binding to neutrophils relative to control (=1) ([7]; replicate 3): 0.62; RhB-PB10 binding to neutrophils relative to control (=1) ([7]; replicate 4): 0.75; RhB-PB10 binding to neutrophils relative to control (=1) ([7]; replicate 5): 0.7
fML-Tyr-G-NH2 [FP12] |  |  |  |  | 4.1 | 4.7 | 1.5 | 2.8 | 
fMLF-Leu-NH2 [FP19] |  |  |  |  | 7.8 | 6.5 | 1.5 | 2.3 | 
